Laboratory results as given in PubChem BioAssay (NCI).
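Results reflect a 48-hour exposure of cells in 96-well plates to compound at five concentrations. GI50 = concentration required for 50% inhibition of growth. TGI denotes the concentration required for complete inhibition of growth.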

Assays:
Experiment in all cases: DTP human tumour cell line panel, 48 h; in the data active means GI50 below about 0.43 µM; inactive means the rest
786-0 renal = system: 786-0 renal
A498 renal = system: A498 renal
A549 NSCLC = system: A549 NSCLC
ACHN renal = system: ACHN renal
BT-549 breast = system: BT-549 breast
CAKI-1 renal = system: CAKI-1 renal
CCRF-CEM leukemia = system: CCRF-CEM leukemia
COLO 205 colon = system: COLO 205 colon
DU-145 prostate = system: DU-145 prostate
EKVX NSCLC = system: EKVX NSCLC
HCC-2998 colon = system: HCC-2998 colon
HCT-116 colon = system: HCT-116 colon
HCT-15 colon = system: HCT-15 colon
HL-60(TB) leukemia = system: HL-60(TB) leukemia
HOP-62 NSCLC = system: HOP-62 NSCLC
HS 578T breast = system: HS 578T breast
HT29 colon = system: HT29 colon
K-562 leukemia = system: K-562 leukemia
KM12 colon = system: KM12 colon
LOX IMVI melanoma = system: LOX IMVI melanoma
M14 melanoma = system: M14 melanoma
MCF7 breast = system: MCF7 breast
MDA-MB-231 breast = system: MDA-MB-231 breast
MDA-MB-435 = system: MDA-MB-435
MOLT-4 leukemia = system: MOLT-4 leukemia
NCI-H226 lung = system: NCI-H226 lung
NCI-H23 lung = system: NCI-H23 lung
NCI-H460 lung = system: NCI-H460 lung
NCI-H522 lung = system: NCI-H522 lung
NCI/ADR-RES ovarian = system: NCI/ADR-RES ovarian
OVCAR-3 ovarian = system: OVCAR-3 ovarian
OVCAR-4 ovarian = system: OVCAR-4 ovarian
OVCAR-5 ovarian = system: OVCAR-5 ovarian
OVCAR-8 ovarian = system: OVCAR-8 ovarian
PC-3 prostate = system: PC-3 prostate
RPMI-8226 leukemia = system: RPMI-8226 leukemia
RXF 393 renal = system: RXF 393 renal
SF-268 CNS = system: SF-268 CNS
SF-295 CNS = system: SF-295 CNS
SF-539 CNS = system: SF-539 CNS
SK-MEL-2 melanoma = system: SK-MEL-2 melanoma
SK-MEL-28 melanoma = system: SK-MEL-28 melanoma
SK-MEL-5 melanoma = system: SK-MEL-5 melanoma
SK-OV-3 ovarian = system: SK-OV-3 ovarian
SN12C renal = system: SN12C renal
SNB-19 CNS = system: SNB-19 CNS
SNB-75 CNS = system: SNB-75 CNS
SR leukemia = system: SR leukemia
SW-620 colon = system: SW-620 colon
T-47D breast = system: T-47D breast
TK-10 renal = system: TK-10 renal
U251 CNS = system: U251 CNS
UACC-257 melanoma = system: UACC-257 melanoma
UACC-62 melanoma = system: UACC-62 melanoma

O=[P@@]1(c2ccccc2)O[C@H](COCc2ccccc2)[C@@H](OCc2ccccc2)[C@H](OCc2ccccc2)[C@H]1NCc1ccccc1
13.1 µM: TGI (UACC-62 melanoma)
18.6 µM: TGI (LOX IMVI melanoma)
19.3 µM: TGI (OVCAR-3 ovarian)
47.5 µM: TGI (SNB-75 CNS)
7.11 µM: TGI (NCI-H460 lung)
6.69 µM: TGI (SR leukemia)
3.6 µM: TGI (SN12C renal)
inactive: GI50 (786-0 renal) 3.03 µM | GI50 (A498 renal) 2.39 µM | GI50 (A549 NSCLC) 3.04 µM | GI50 (ACHN renal) 3.38 µM | GI50 (BT-549 breast) 2.89 µM | GI50 (CAKI-1 renal) 2.15 µM | GI50 (CCRF-CEM leukemia) 3.23 µM | GI50 (COLO 205 colon) 1.93 µM | GI50 (DU-145 prostate) 4.97 µM | GI50 (EKVX NSCLC) 2.71 µM | GI50 (HCC-2998 colon) 4.26 µM | GI50 (HCT-116 colon) 2.74 µM | GI50 (HCT-15 colon) 3.54 µM | GI50 (HL-60(TB) leukemia) 2.15 µM | GI50 (HOP-62 NSCLC) 3.77 µM | GI50 (HS 578T breast) 3.43 µM | GI50 (HT29 colon) 3.21 µM | GI50 (K-562 leukemia) 2.86 µM | GI50 (KM12 colon) 3.21 µM | GI50 (LOX IMVI melanoma) 3.25 µM | GI50 (M14 melanoma) 3.21 µM | GI50 (MCF7 breast) 3.38 µM | GI50 (MDA-MB-231 breast) 3.22 µM | GI50 (MDA-MB-435) 2.92 µM | GI50 (MOLT-4 leukemia) 2.38 µM | GI50 (NCI-H226 lung) 3.43 µM | GI50 (NCI-H23 lung) 3.66 µM | GI50 (NCI-H460 lung) 2.59 µM | GI50 (NCI-H522 lung) 5.75 µM | GI50 (NCI/ADR-RES ovarian) 3.16 µM | GI50 (OVCAR-3 ovarian) 3.17 µM | GI50 (OVCAR-4 ovarian) 3.47 µM | GI50 (OVCAR-5 ovarian) 3.51 µM | GI50 (OVCAR-8 ovarian) 3.24 µM | GI50 (PC-3 prostate) 3.03 µM | GI50 (RPMI-8226 leukemia) 2.97 µM | GI50 (RXF 393 renal) 3.83 µM | GI50 (SF-268 CNS) 3.47 µM | GI50 (SF-295 CNS) 2.05 µM | GI50 (SF-539 CNS) 4.74 µM | GI50 (SK-MEL-2 melanoma) 3.73 µM | GI50 (SK-MEL-28 melanoma) 4.48 µM | GI50 (SK-MEL-5 melanoma) 2.59 µM | GI50 (SK-OV-3 ovarian) 4.48 µM | GI50 (SN12C renal) 1.83 µM | GI50 (SNB-19 CNS) 3.71 µM | GI50 (SNB-75 CNS) 2.08 µM | GI50 (SR leukemia) 2.37 µM | GI50 (SW-620 colon) 3.52 µM | GI50 (T-47D breast) 2.85 µM | GI50 (TK-10 renal) 3.69 µM | GI50 (U251 CNS) 2.97 µM | GI50 (UACC-257 melanoma) 2.22 µM | GI50 (UACC-62 melanoma) 2.92 µM
7.8 µM: TGI (MOLT-4 leukemia)
16.2 µM: TGI (BT-549 breast)
48.9 µM: TGI (OVCAR-4 ovarian)
70.4 µM: TGI (MCF7 breast)
47.3 µM: TGI (KM12 colon)
7.92 µM: TGI (T-47D breast)
8.66 µM: TGI (CAKI-1 renal)
> 100 µM: TGI (786-0 renal) | TGI (A549 NSCLC) | TGI (ACHN renal) | TGI (CCRF-CEM leukemia) | TGI (DU-145 prostate) | TGI (EKVX NSCLC) | TGI (HCC-2998 colon) | TGI (HCT-116 colon) | TGI (HCT-15 colon) | TGI (HOP-62 NSCLC) | TGI (HS 578T breast) | TGI (HT29 colon) | TGI (K-562 leukemia) | TGI (M14 melanoma) | TGI (MDA-MB-231 breast) | TGI (MDA-MB-435) | TGI (NCI-H23 lung) | TGI (NCI-H522 lung) | TGI (NCI/ADR-RES ovarian) | TGI (OVCAR-5 ovarian) | TGI (OVCAR-8 ovarian) | TGI (PC-3 prostate) | TGI (RPMI-8226 leukemia) | TGI (RXF 393 renal) | TGI (SF-268 CNS) | TGI (SF-539 CNS) | TGI (SK-MEL-2 melanoma) | TGI (SK-MEL-28 melanoma) | TGI (SK-OV-3 ovarian) | TGI (SNB-19 CNS) | TGI (SW-620 colon) | TGI (TK-10 renal) | TGI (U251 CNS)
85.2 µM: TGI (NCI-H226 lung)
6.79 µM: TGI (SK-MEL-5 melanoma)
6.09 µM: TGI (HL-60(TB) leukemia)
6.76 µM: TGI (UACC-257 melanoma)
3.71 µM: TGI (COLO 205 colon)
6.68 µM: TGI (SF-295 CNS)
8.99 µM: TGI (A498 renal)
